Article PMC9102502, “The Influence of Selected Antipsychotic Drugs on Biochemical Aspects of Alzheimer’s Disease” (International Journal of Molecular Sciences, 2022)

Assays:
AChE = AChE (Homo sapiens, UniProt P22303); assay: Synergism of antipsychotics with donepezil/rivastigmine (binary mixtures), AChE; settings: ComboSyn;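 further: antipsychotic concentration kept fixed across all measurements, selected from estimated therapeutic plasma levels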
Description: (§6) In turn, the concentrations of antipsychotics were constant in every measurement, and were chosen on the basis of estimated therapeutic plasma concentrations.
(§7) Automatic simulation of synergism and antagonism at all doses or effect levels is possible by computer software, based on algorithms. Calculation of the combination index (CI) and isobologram analyses enable to quantitatively determine drug interactions, where CI < 1, =1 and >1 indicate synergism, additive effect and antagonism, respectively. […] The software also allowed us to display the dose–effect curve, the median–effect plot and the dose-reduction index (DRI) plot [36].

[1] = target: T1, human plasma butyrylcholinesterase (Homo sapiens, UniProt P06276); assay: BuChE inhibition, modified Ellman's method; format: biochemical
T1 construct: The solution of plasma 200-fold diluted with 0.9% NaCl; from tissue; host or cells: citrated plasma from blood of healthy human donors
Description: (§1) The activity of both cholinesterases (AChE and BuChE) were assessed spectrophotometrically according to the Ellman’s method with some modifications by Worek et al.. This test development included experimental determination of the optimal testing conditions. For all measurements, 37 °C was used as the best temperature for enzymatic determinations in material of human origin.
(§2) The solution of plasma 200-fold diluted with 0.9% NaCl and solution of hemolyzed erythrocytes diluted 400-fold with 0.9% were incubated (37 °C, 15 min) with 5 μL DTNB (0.01 mol/L) and 10 μL tested compound at a wider range of concentration than the therapeutic range in order to assess the overall effect of the compound on human esterases (AChE and BuChE). The controls without antipsychotics, containing only DTNB and diluted plasma or diluted solution of hemolyzed erythrocytes, were prepared. […] The final volume of a sample was 500 μL. […] The maximal velocity of the reaction was determined on the basis of changes in absorbance over time.
(§3) AChE SI (selectivity index) was calculated by using the following formula: SI = IC50 of BuChE/IC50 of AChE. However, BuChE SI was defined as IC50 of AChE/IC50 of BuChE. Maximal velocity (Vmax) and the Michaelis constant (Km) were calculated with the use of linear regression—according to the Hanes–Woolf plot.

[2] = target: T2, human erythrocyte acetylcholinesterase (Homo sapiens, UniProt P22303); assay: AChE inhibition, modified Ellman's method; format: biochemical
T2 construct: solution of hemolyzed erythrocytes diluted 400-fold; from tissue; host or cells: hemolyzed erythrocytes from blood of healthy human donors
Description: as §1, §2, §3

[3] = target: T3, recombinant human β-amyloid (1–42) (Homo sapiens, UniProt P05067); assay: Beta-amyloid aggregation, Thioflavin T fluorescence; format: biochemical; settings: for effect on Aβ aggregation after a longer incubation time: 24 and 48 h, both tested concentrations
T3 construct: recombinant human β-amyloid (1–42; ultrapure); purchased Sigma-Aldrich (St. Louis, MO, USA)
Description: Aβ42 peptide was dissolved in DMSO and left to hydrate for a few minutes. The solution was centrifuged at 10,000 rpm for 5 min at 4 °C to separate any precipitated material. The solution at a concentration of 220 μmol/L was stored in small aliquots at a temperature of −30 °C and before each experiment it was restored at 37 °C for 15 min. Test samples containing Aβ42 solution at the final concentration of 20 μmol/L was incubated with antipsychotics at concentrations equaling their TPC and 1/2 × TPC (v = 10 µL). The final volume of the test samples was 100 μL. The positive control constituted a sample of Aβ42 peptide, whereas the negative control contained tannic acid at the final concentrations of 0.1 µmol/L and 10 µmol/L. The fibrillation reaction was set up by addition of thioflavin ThT dye at a concentration of 5 µmol/L. The fluorescence intensity was measured at room temperature with Ex/Em = 440 nm/484 nm (Synergy H1; BioTek, Winooski, VT, USA). The measurements of fluorescence intensity expressed as relative fluorescence units (RFU) were taken at 10, 30, 60 and 90 min and then after 24 and 48 h. The fluorescence intensity measured for control equaled 100% of Aβ aggregation and it was used to estimate the inhibitory properties of the tested antipsychotics.

BuChE = BuChE (Homo sapiens, UniProt P06276); assay: Synergism of antipsychotics with donepezil/rivastigmine (binary mixtures), BuChE;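 further: combination index derived by median-effect analysis of combined drug effects on the cholinesterase, with values below 1 meaning synergism, exactly 1 additivity and above 1 antagonism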
Description: as §6, §7

astrocytes = assay: WST-1 viability under AAPH-induced oxidative stress, astrocytes; format: cell-based, human; settings: for astrocyte viability compared with the control (pure AAPH): benperidol 5 and 10 μg/L, penfluridol 12.5 μg/L, pimozide 15 μg/L, promazine 25 and 50 μg/L; for astrocyte viability under AAPH: ½ × TPC (benperidol 5 μg/L, bromperidol 12.5 μg/L), AAPH 15 mmol/L
Description: (§4) WST-1 assay (Takara, Takara Bio Europe, Saint-Germain-en-Laye, France) was used to assess the effects of antipsychotics on the growth of HUVEC and astrocytes. The experiments were conducted as described previously. HUVEC were seeded at a density of 7500 cells, and astrocytes at 5000 cells per well on 96-well microplates and cultured for 24 h followed by treatment with compounds at ½ × TPCmax and TPCmax or pure medium as a control (v = 100 μL) for another 24 h (37 °C, 5% CO2). Subsequently, the cells were washed with culture medium (100 μL) and WST-1 reagent diluted in medium (10 μL of reagent + 90 μL of medium) was added. The plates were incubated at 37 °C in 5% CO2 for another 90 min for HUVEC and 60 min for astrocytes. The absorbance was read at 450 nm using a microplate reader (iMARK, Bio-Rad, Hercules, CA, USA). The cells viability was expressed as a percentage of the control samples which constituted 100% viability.
(§5) Moreover, the WST-1 assay was used to evaluate potential protective effects of antipsychotics on the growth of HUVEC and astrocytes under conditions of AAPH-induced oxidative stress. The experimental conditions were the same as in viability studies. AA at the final concentration of 10 μg/mL was used as an antioxidant control. After reaching the confluence, the antipsychotics were added at concentrations equaling ½ × TPCmax and TPCmax. After 1 h incubation under standard conditions, 50 μL AAPH was added to the wells containing tested compounds or AA. The AAPH concentration was chosen on the basis of preliminary experiments—17.5 mmol/L in HUVEC experiments, and 15.0 mmol/L in the case of astrocytes.

HUVEC cells = assay: WST-1 viability under AAPH-induced oxidative stress, HUVEC; format: cell-based, human; settings: AAPH 17.5 mmol/L, relative to pure medium control
Description: as §4, §5

[4] = donepezil 0.005 μmol/L + antipsychotic at TPCmax, CI < 1 synergism, > 1 antagonism
[5] = donepezil 0.01 μmol/L + antipsychotic at TPCmax
[6] = donepezil 0.02 μmol/L + antipsychotic at TPCmax
[7] = donepezil 0.05 μmol/L + antipsychotic at TPCmax
[8] = donepezil 0.1 μmol/L + antipsychotic at TPCmax
[9] = rivastigmine 5 μmol/L + antipsychotic at TPCmax
[10] = rivastigmine 10 μmol/L + antipsychotic at TPCmax
[11] = rivastigmine 15 μmol/L + antipsychotic at TPCmax
[12] = rivastigmine 25 μmol/L + antipsychotic at TPCmax
[13] = rivastigmine 40 μmol/L + antipsychotic at TPCmax
[14] = rivastigmine 50 μmol/L + antipsychotic at TPCmax
[15] = rivastigmine 75 μmol/L + antipsychotic at TPCmax
[16] = rivastigmine 100 μmol/L + antipsychotic at TPCmax
[17] = donepezil 2 μmol/L + antipsychotic at TPCmax, ComboSyn
[18] = donepezil 5 μmol/L + antipsychotic at TPCmax, ComboSyn
[19] = donepezil 10 μmol/L + antipsychotic at TPCmax, ComboSyn
[20] = donepezil 20 μmol/L + antipsychotic at TPCmax, ComboSyn
[21] = donepezil 50 μmol/L + antipsychotic at TPCmax, ComboSyn
[22] = donepezil 100 μmol/L + antipsychotic at TPCmax, ComboSyn
[23] = rivastigmine 0.05 μmol/L + antipsychotic at TPCmax, ComboSyn
[24] = rivastigmine 0.1 μmol/L + antipsychotic at TPCmax, ComboSyn
[25] = rivastigmine 0.25 μmol/L + antipsychotic at TPCmax, ComboSyn
[26] = rivastigmine 0.5 μmol/L + antipsychotic at TPCmax, ComboSyn
[27] = rivastigmine 0.75 μmol/L + antipsychotic at TPCmax, ComboSyn
[28] = rivastigmine 1 μmol/L + antipsychotic at TPCmax, ComboSyn
[29] = rivastigmine 2.5 μmol/L + antipsychotic at TPCmax, ComboSyn
[30] = rivastigmine 5 μmol/L + antipsychotic at TPCmax, ComboSyn
[31] = ½ × TPC (bromperidol 12.5 μg/L, quetiapine 200 μg/L)
[32] = TPC (bromperidol 25 μg/L, quetiapine 400 μg/L)

Sequence of BuChE (P06276 29-602): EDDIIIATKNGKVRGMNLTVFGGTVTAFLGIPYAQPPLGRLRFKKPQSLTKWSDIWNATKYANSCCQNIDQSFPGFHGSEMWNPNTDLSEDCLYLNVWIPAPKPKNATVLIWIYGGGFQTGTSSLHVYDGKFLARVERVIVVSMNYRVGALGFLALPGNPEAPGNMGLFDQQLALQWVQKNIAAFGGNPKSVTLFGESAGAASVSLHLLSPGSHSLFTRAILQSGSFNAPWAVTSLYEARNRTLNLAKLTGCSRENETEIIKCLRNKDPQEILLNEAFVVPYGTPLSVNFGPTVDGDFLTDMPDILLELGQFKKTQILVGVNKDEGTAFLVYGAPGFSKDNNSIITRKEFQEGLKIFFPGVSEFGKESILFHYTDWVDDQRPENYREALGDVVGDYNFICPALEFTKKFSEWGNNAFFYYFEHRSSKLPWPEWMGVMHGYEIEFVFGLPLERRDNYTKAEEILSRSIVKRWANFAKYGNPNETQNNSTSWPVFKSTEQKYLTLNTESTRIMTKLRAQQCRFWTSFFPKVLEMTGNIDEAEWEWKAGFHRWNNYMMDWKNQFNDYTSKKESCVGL
T1 sequence (P06276 29-602): as above
T3 sequence (P05067 672-713 limits assumed): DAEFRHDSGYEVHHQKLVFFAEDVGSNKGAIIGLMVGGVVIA
T2 sequence (P22303 32-617 isoform P22303-2 limits assumed): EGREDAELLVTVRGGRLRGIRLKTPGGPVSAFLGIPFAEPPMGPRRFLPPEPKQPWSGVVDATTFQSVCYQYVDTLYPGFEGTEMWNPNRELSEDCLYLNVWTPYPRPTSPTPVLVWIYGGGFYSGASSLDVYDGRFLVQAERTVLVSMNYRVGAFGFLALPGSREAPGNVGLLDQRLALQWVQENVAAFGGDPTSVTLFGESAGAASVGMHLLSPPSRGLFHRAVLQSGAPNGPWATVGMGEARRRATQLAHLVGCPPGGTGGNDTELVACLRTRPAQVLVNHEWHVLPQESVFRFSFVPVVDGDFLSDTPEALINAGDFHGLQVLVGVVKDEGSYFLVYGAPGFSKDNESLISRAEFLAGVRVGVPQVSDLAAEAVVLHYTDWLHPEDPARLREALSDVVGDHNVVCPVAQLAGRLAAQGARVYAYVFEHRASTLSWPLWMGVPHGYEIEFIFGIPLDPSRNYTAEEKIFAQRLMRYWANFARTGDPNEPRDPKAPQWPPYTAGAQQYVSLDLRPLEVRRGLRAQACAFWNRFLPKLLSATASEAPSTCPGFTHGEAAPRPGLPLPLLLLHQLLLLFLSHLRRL
Sequence of AChE (P22303 32-617 isoform P22303-2 limits assumed): as above

Compound	CI (combination index), AChE (AChE; [4])	CI (combination index), AChE (AChE; [5])	CI (combination index), AChE (AChE; [6])	CI (combination index), AChE (AChE; [7])	CI (combination index), AChE (AChE; [8])	CI (combination index), AChE (AChE; [9])	CI (combination index), AChE (AChE; [10])	CI (combination index), AChE (AChE; [11])	CI (combination index), AChE (AChE; [12])	CI (combination index), AChE (AChE; [13])	CI (combination index), AChE (AChE; [14])	CI (combination index), AChE (AChE; [15])	CI (combination index), AChE (AChE; [16])	CI (combination index), BuChE (BuChE; [17])	CI (combination index), BuChE (BuChE; [18])	CI (combination index), BuChE (BuChE; [19])	CI (combination index), BuChE (BuChE; [20])	CI (combination index), BuChE (BuChE; [22])	CI (combination index), BuChE (BuChE; [23])	CI (combination index), BuChE (BuChE; [24])	other results
O=C(CCCN1CCC(n2c(O)nc3ccccc32)CC1)c1ccc(F)cc1 [Benperidol, benperidol]	0.83	1.09	1.04	1.02	1.24	0.31	0.44	0.48	0.57	0.62	0.63	0.66	0.65	0.40	0.50	0.57	0.60	0.84	0.27	0.32	BuChE reaction velocity ([1]; 75 µg/L, control 0.302 ± 0.029 A/min): 0.283 ± 0.029 A/min; BuChE reaction velocity ([1]; 100 µg/L, control 0.302 ± 0.029 A/min): 0.279 ± 0.021 A/min; AChE reaction velocity ([2]; 75 µg/L, control 0.258 ± 0.016 A/min): 0.250 ± 0.015 A/min; AChE reaction velocity ([2]; 100 µg/L, control 0.258 ± 0.016 A/min): 0.239 ± 0.014 A/min; inhibition of Aβ ([3]; 10 μg/L, time range from 10 min to 24 h incubation): 42.1–53.3%; CI (combination index), BuChE (BuChE; [21]): 0.69; CI (combination index), BuChE (BuChE; [25]): 0.56; CI (combination index), BuChE (BuChE; [26]): 0.91; CI (combination index), BuChE (BuChE; [27]): 0.95; CI (combination index), BuChE (BuChE; [28]): 1.00; CI (combination index), BuChE (BuChE; [29]): 1.08; CI (combination index), BuChE (BuChE; [30]): 1.00; astrocyte viability compared with the control (pure AAPH) (astrocytes): statistically significant increase; astrocyte viability under AAPH (astrocytes): 81.9%; viability of HUVEC under AAPH (HUVEC cells; [31]): 82.9%
O=C(CCCN1CCC(O)(c2ccc(Br)cc2)CC1)c1ccc(F)cc1 [Bromperidol, bromperidol]	0.07	0.78	0.81	0.81	0.80	0.32	0.38	0.46	0.50	0.53	0.49	0.55	0.60	0.43	0.52	0.57	0.70	0.89	0.18	0.30	BuChE reaction velocity ([1]; 200 µg/L, control 0.349 ± 0.013 A/min): 0.230 ± 0.023 A/min; AChE reaction velocity ([2]; 200 µg/L, control 0.236 ± 0.032 A/min): 0.228 ± 0.029 A/min; percentage value of Aβ inhibition ([3]; 12.5 μg/L, 48 h, compared with the control (100% Aβ aggregation)): 51.2%; effect on Aβ aggregation after a longer incubation time [3]: substantially inhibit; CI (combination index), BuChE (BuChE; [25]): 0.57; CI (combination index), BuChE (BuChE; [26]): 0.74; CI (combination index), BuChE (BuChE; [27]): 0.86; CI (combination index), BuChE (BuChE; [28]): 0.92; CI (combination index), BuChE (BuChE; [29]): 0.96; CI (combination index), BuChE (BuChE; [30]): 0.96; astrocyte viability under AAPH (astrocytes): 68.9%; viability of HUVEC under AAPH (HUVEC cells; [32]): 82.5%; viability of HUVEC under AAPH (HUVEC cells; [31]): 66.8%
O=c1[nH]c2ccccc2n1C1CCN(CCCC(c2ccc(F)cc2)c2ccc(F)cc2)CC1 [Pimozide, pimozide]	0.50	0.63	0.62	0.65	0.68	0.26	0.37	0.38	0.47	0.56	0.57	0.62	0.65	0.57	0.55	0.78	0.76	0.79	> 2.50	> 2.50	AChE reaction velocity ([2]; 25 µg/L, control 0.263 ± 0.011 A/min): 0.253 ± 0.012 A/min; AChE reaction velocity ([2]; 100 µg/L, control 0.263 ± 0.011 A/min): 0.248 ± 0.009 A/min; effect on Aβ aggregation after a longer incubation time [3]: substantially inhibit; CI (combination index), BuChE (BuChE; [21]): 0.91; CI (combination index), BuChE (BuChE; [25]): > 2.50; CI (combination index), BuChE (BuChE; [26]): > 2.50; CI (combination index), BuChE (BuChE; [27]): > 2.50; CI (combination index), BuChE (BuChE; [28]): > 2.50; CI (combination index), BuChE (BuChE; [29]): > 2.50; CI (combination index), BuChE (BuChE; [30]): > 2.50; CI (combination index), BuChE (BuChE; rivastigmine (0.05–5 µmol/L) / pimozide at TPCmax, beyond the scale of Figure 5B): above 2.5; astrocyte viability compared with the control (pure AAPH) (astrocytes): statistically significant increase; viability of HUVEC under AAPH (HUVEC cells; [32]): 65.2%; viability of HUVEC under AAPH (HUVEC cells; [31]): 64.2%
